One series concerns guinea pig skin. The experiment in a line: Skin allergy test.
The test system of the next series is corneal cells. The experiment in a line: Vitro model of corneal ulcer: growth of corneal cells in culture in vitro. In kind it is cell-based, ICR mice. Particulars: cornea of immunised mice co-cultured with autologous leukocytes. Here is the method: The rabbit corneas were taken and cut into pieces, 5-10 times volume of 5% triton solution was added and homogenized until there were no lumpy particles, then centrifuged at 3000 r/min for 10 min, and the supernatant was taken. 5 ml of the supernatant was taken and mixed with 5 ml of complete Freund's adjuvant to prepare a mixed solution for later use.
SPF grade ICR mice were divided into normal group, immune group, and cyclophosphamide group, 10 mice/group. The normal group received subcutaneous injection of 0.5 ml of physiological saline per mouse; Each mouse in the immune group and cyclophosphamide group was subcutaneously injected with the mixed solution+physiological saline, the mixed solution+cyclophosphamide 300 mg/kg respectively, and the injection sites were not overlapped; Injection was performed once every other day for a total of 10 times. 3 days after the last injection, the mice were euthanized using the bloodletting method, and the eyeballs were removed and cut into pieces under sterile conditions. At the same time, the cornea and the leukocytes separated from autologous blood were co-cultured in a 24-well culture plate.

Where [1] appears, read: 1 h after challenge and drug removal.
Where [2] appears, read: 24 h after challenge and drug removal.
The mark [3] stands for this setting: 48 h after challenge and drug removal.

The structures appear in SMILES notation. Marks after values point to notes of the source that are not given here.

On to `O=[N+]([O-])c1ccc(Cl)c([N+](=O)[O-])c1` [2,4-dinitrochlorobenzene], for which, in the series on guinea pig skin (setting [1]), the Average score is recorded as 2.2, the “Number of allergic animals” value is 10 and the Total score worked out at 22. In the series with guinea pig skin (setting [2]), the Average score stood at 1.7, the “Number of allergic animals” value worked out at 10 and the Total score amounted to 17. In the series on guinea pig skin (setting [3]), the Average score is given as 1.0, the “Number of allergic animals” value is given as 10 and the Total score is 10.
`O=P1(N(CCCl)CCCl)NCCCO1` (stereo not shown) [cyclophosphamide]: in the series on corneal cells (Grow time 72 h), the “Growth of corneal cells in culture in vitro, Number” value is on record as 8 and the “Growth of corneal cells in culture in vitro, Percentage % (growth rate)” value is recorded as 16.0** %. For the same molecule, in the series with corneal cells (Grow time 120 h), the “Growth of corneal cells in culture in vitro, Number” value was 11 and the “Growth of corneal cells in culture in vitro, Percentage % (growth rate)” value is 22.0** %.

The record behind these values is patent US20250057909A1, “NOVEL USE OF ALANYL-GLUTAMINE AND OPHTHALMIC COMPOSITION COMPRISING ALANYL-GLUTAMINE” (SEINDA PHARMACEUTICAL GUANGZHOU CORPORATION, priority 2021, published 2025).
